Test systems include BT-549 breast; MOLT-4 leukemia; SF-295 CNS; NCI-H522 lung; MDA-MB-231 breast; SW-620 colon; OVCAR-5 ovarian; 786-0 renal; SK-MEL-2 melanoma; DU-145 prostate.
Holding throughout (assay): NCI anticancer screen, dose series, 48 h

Where “and” joins values, the source holds several entries; their conditions need not be identical. Identical values can stand only once.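 In this assay, cells in 96-well plates receive the compound at five concentrations for 48 hours. Endpoints are linearly interpolated between the surrounding concentrations. Here, GI50 denotes the concentration required for 50% inhibition of growth. TGI marks complete inhibition of growth.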

For `CNc1nc(N)nc(Nc2ccc(I)cc2)c1N=O`, the TGI in the test on BT-549 breast, in the test with MOLT-4 leukemia, in the test with SF-295 CNS, in the test on NCI-H522 lung, in the test on MDA-MB-231 breast and in the test on SW-620 colon was over 100 µM throughout. Also, the TGI in the test with OVCAR-5 ovarian, in the test on 786-0 renal, in the test on SK-MEL-2 melanoma and in the test with DU-145 prostate was over 100 µM each time.
`CCN(Cc1c(F)cccc1OC)c1ccc(CO)c(Cl)c1`: the GI50 in the test with BT-549 breast is 17.6 µM; in the test on MOLT-4 leukemia, 17.4 µM; with SF-295 CNS it was 0.0707 µM; in the test on NCI-H522 lung it was 13 µM; with MDA-MB-231 breast, 14.5 µM; in the test on SW-620 colon, 0.714 µM. In addition, the GI50 was 0.0371 µM in the test on OVCAR-5 ovarian, 16.7 µM with 786-0 renal, 2.39 µM in the test on SK-MEL-2 melanoma and 17.8 µM with DU-145 prostate. In addition, the TGI with BT-549 breast was 36.9 µM; in the test on MOLT-4 leukemia, 52.3 µM; in the test with SF-295 CNS it was 1.88 µM; in the test on NCI-H522 lung it was 29.6 µM; with MDA-MB-231 breast, 40.9 µM; with SW-620 colon, over 77 µM. The TGI in the test on OVCAR-5 ovarian was 0.242 µM; in the test on 786-0 renal, 38.9 µM; in the test with SK-MEL-2 melanoma, 21.7 µM; in the test with DU-145 prostate, over 57.3 µM.
As for `NNc1ncnc2nc[nH]c12`, the GI50 in the test on BT-549 breast was 4.22 µM; with MOLT-4 leukemia it was 5.31 µM; in the test with SF-295 CNS, 3.95 µM; in the test on NCI-H522 lung it was 1.83 µM; with MDA-MB-231 breast, 2.92 µM; in the test with SW-620 colon, 3.91 µM. The GI50 is 3.18 µM with OVCAR-5 ovarian, 3.03 µM in the test on 786-0 renal, 9.27 µM in the test with SK-MEL-2 melanoma and 3.29 µM in the test with DU-145 prostate. The TGI in the test with BT-549 breast is over 94.3 µM; in the test with MOLT-4 leukemia, over 60.1 µM; with SF-295 CNS, over 72.6 µM; in the test with NCI-H522 lung it was over 100 µM; with MDA-MB-231 breast it was 31.7 µM; in the test with SW-620 colon, over 100 µM. Moreover, the TGI in the test on OVCAR-5 ovarian is over 40.4 µM; in the test with 786-0 renal it was over 83.8 µM; in the test on SK-MEL-2 melanoma, 97.4 µM; with DU-145 prostate, 67.8 µM.
For `O=[N+]([O-])c1ccccc1N=Nc1c(O)[nH]c2c(Cl)cc(Cl)cc12`, the TGI in the test on BT-549 breast was 30.5 µM; with MOLT-4 leukemia it was over 87.8 µM; with SF-295 CNS it was over 61 µM; in the test on NCI-H522 lung, over 100 µM; with MDA-MB-231 breast it was over 69.3 µM; in the test on SW-620 colon it was over 100 µM. The TGI in the test with OVCAR-5 ovarian was over 100 µM; in the test on 786-0 renal it was 39 µM; with SK-MEL-2 melanoma, over 74.3 µM; in the test with DU-145 prostate, over 100 µM.
`CCn1cc(-c2ccnc3[nH]c(-c4cccc(CN(C)C)c4)cc23)c(-c2ccc(NC(=O)N(C)C)cc2)n1`: the GI50 in the test on BT-549 breast was 1.45 µM and 2.3 µM; with MOLT-4 leukemia it was 2.15 µM and 1.74 µM; with SF-295 CNS, 0.484 µM and 0.408 µM; with MDA-MB-231 breast, 3.52 µM and 2.95 µM; with SW-620 colon, 0.566 µM and 0.533 µM; with OVCAR-5 ovarian, 1.56 µM and 4.74 µM. Further, the GI50 is 2.79 µM and 2.59 µM with 786-0 renal; 2.43 µM and 2.19 µM in the test with SK-MEL-2 melanoma; 3.63 µM and 1.97 µM with DU-145 prostate. The TGI in the test with BT-549 breast is 17.3 µM and > 10 µM; in the test on MOLT-4 leukemia it was 39.3 µM and > 10 µM; with SF-295 CNS, 11.7 µM and > 10 µM; in the test on NCI-H522 lung it was 20 µM and > 10 µM; with MDA-MB-231 breast it was 19.8 µM and > 10 µM; with SW-620 colon, 13.7 µM and > 10 µM. For the same compound, the TGI in the test with OVCAR-5 ovarian was 14.6 µM and > 10 µM; in the test on 786-0 renal it was 20.3 µM and > 10 µM; with SK-MEL-2 melanoma it was 9.87 µM and > 10 µM; in the test with DU-145 prostate, 37.8 µM and > 10 µM.
As for `COc1ccc(CNc2c3ccccc3nc3ccccc23)cc1F`, the GI50 is 4.88 µM in the test on BT-549 breast; 3.28 µM in the test with MOLT-4 leukemia; 2.68 µM with SF-295 CNS; 2.01 µM in the test with NCI-H522 lung; 3.16 µM in the test on MDA-MB-231 breast; 2.51 µM in the test with SW-620 colon. The GI50 was 3.52 µM in the test on OVCAR-5 ovarian, 3.6 µM with 786-0 renal, 3.45 µM in the test with SK-MEL-2 melanoma and 3.65 µM in the test on DU-145 prostate. Further, the TGI with BT-549 breast turned out to be 18.3 µM; in the test with MOLT-4 leukemia, 14.6 µM; with SF-295 CNS it was 10.4 µM; in the test with NCI-H522 lung, 6.45 µM; with MDA-MB-231 breast, 10.7 µM; with SW-620 colon it was 10.5 µM. Further, the TGI in the test with OVCAR-5 ovarian is 13.5 µM; in the test with 786-0 renal, 13.7 µM; in the test on SK-MEL-2 melanoma it was 13.4 µM; in the test on DU-145 prostate, 12.4 µM.
Take `CCCCCCn1c(-c2ccc(C(=O)O/N=C(\N)c3ccc4c(c3)OCO4)cc2)nc(-c2ccccc2)c1-c1ccccc1`: the GI50 in the test on BT-549 breast is 2.02 µM; in the test on MOLT-4 leukemia, 1.74 µM; in the test on SF-295 CNS, 1.69 µM; with NCI-H522 lung it was 1.81 µM; in the test with MDA-MB-231 breast, 2.41 µM; in the test on SW-620 colon, 2.8 µM. Moreover, the GI50 in the test with OVCAR-5 ovarian was 2.9 µM; in the test on 786-0 renal it was 1.02 µM; in the test with SK-MEL-2 melanoma it was 4.19 µM; in the test on DU-145 prostate, 1.33 µM. In addition, the TGI in the test on BT-549 breast turned out to be 5.41 µM; in the test with MOLT-4 leukemia, 4.55 µM; in the test on SF-295 CNS it was 3.35 µM; with NCI-H522 lung it was 3.92 µM; in the test with MDA-MB-231 breast, 6.72 µM; with SW-620 colon it was 12 µM. In addition, the TGI in the test with OVCAR-5 ovarian amounted to 13.8 µM; with 786-0 renal, 2.56 µM; in the test on SK-MEL-2 melanoma it was 21.7 µM; in the test with DU-145 prostate, 2.66 µM.
On to `Nc1nc(Cl)nc2c1ncn2C1CC(O)C(CO)O1` (stereo unspecified), for which the GI50 in the test with BT-549 breast was 0.345 µM; in the test with MDA-MB-231 breast, over 79.8 µM; in the test with 786-0 renal, 2.45 µM; with DU-145 prostate, 1.81 µM. Further, the TGI in the test with BT-549 breast was over 100 µM; in the test with MOLT-4 leukemia it was over 79.3 µM; in the test with SF-295 CNS it was 99.9 µM; with NCI-H522 lung, over 100 µM; in the test with MDA-MB-231 breast it was over 100 µM; in the test on SW-620 colon, over 100 µM. Further, the TGI in the test with OVCAR-5 ovarian, in the test on 786-0 renal, in the test on SK-MEL-2 melanoma and with DU-145 prostate was over 100 µM in each case.
On to `O=c1cccc(C#CC#C[C@@H]2O[C@H]2CO)o1`, for which the GI50 with BT-549 breast is 2 µM; in the test with MOLT-4 leukemia, 0.33 µM; in the test with SF-295 CNS, 2.64 µM; with NCI-H522 lung it was 0.814 µM; in the test on MDA-MB-231 breast it was 0.233 µM; with SW-620 colon, 0.746 µM. Also, the GI50 was 0.49 µM with OVCAR-5 ovarian, 0.626 µM with 786-0 renal, 2.2 µM in the test on SK-MEL-2 melanoma and 2.42 µM in the test on DU-145 prostate. Also, the TGI was 3.73 µM in the test on BT-549 breast; over 100 µM with MOLT-4 leukemia; 9.03 µM with SF-295 CNS; 0.877 µM in the test on MDA-MB-231 breast; 3.77 µM in the test with SW-620 colon; 1.88 µM in the test on OVCAR-5 ovarian. In addition, the figures for the TGI in the test on 786-0 renal and in the test on DU-145 prostate were 1.43 µM and 5.97 µM, respectively.
